Assay results as given in patent US10370371B2, “Substituted pyrimidine Bmi-1 inhibitors” (PTC Therapeutics, Inc., priority 2013, dated 2019).

Key:
[1] = test system: Bmi-1 protein; assay: Sandwich ELISA Assay (Bmi-1 protein level in HT-1080 cells); assay type: cell-based
Outline: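 HT-1080 cells were treated with compounds (0.5% DMSO final) for 40-48 h at 37 °C. Lysates were assayed by sandwich ELISA: mouse anti-Bmi-1 capture, rabbit anti-Bmi-1 and HRP anti-rabbit detection, TMB read at OD450 (OD570 reference). Levels were quantified against a recombinant GST-Bmi-1 standard curve (125-8000 pg/mL).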

| EC50 [1] [nM] | melting point [°C] | SMILES |
| --- | --- | --- |
| 10 to 100 | 89 to 91 | Cc1cc2nc(C)n(-c3cc(N)nc(Nc4ccc(OC(F)F)cc4)n3)c2cc1C [Cpd 188, N^2-[4-(difluoromethoxy)phenyl]-6-(2,5,6-trimethyl-1H-benzimidazol-1-yl)pyrimidine-2,4-diamine] |
| 100 to 3000 | 89 to 91 | COc1ccc(Nc2nc(N)cc(-c3c(C)noc3C)n2)cc1 [Cpd 189, 6-(3,5-dimethyl-1,2-oxazol-4-yl)-N^2-(4-methoxyphenyl)pyrimidine-2,4-diamine] |
